This is an account of results in ChEMBL document CHEMBL3217639, “Property based optimisation of glucokinase activators discovery of the phase IIb clinical candidate AZD1656” (Medchemcomm, 2012).

Series [1] in a line: Crystalline solubility of the compound. The series is classed as physicochemical.
The target of the next series is T1, Hexokinase-4 (Homo sapiens, UniProt P35557).
T1 sequence (P35557 whole entry): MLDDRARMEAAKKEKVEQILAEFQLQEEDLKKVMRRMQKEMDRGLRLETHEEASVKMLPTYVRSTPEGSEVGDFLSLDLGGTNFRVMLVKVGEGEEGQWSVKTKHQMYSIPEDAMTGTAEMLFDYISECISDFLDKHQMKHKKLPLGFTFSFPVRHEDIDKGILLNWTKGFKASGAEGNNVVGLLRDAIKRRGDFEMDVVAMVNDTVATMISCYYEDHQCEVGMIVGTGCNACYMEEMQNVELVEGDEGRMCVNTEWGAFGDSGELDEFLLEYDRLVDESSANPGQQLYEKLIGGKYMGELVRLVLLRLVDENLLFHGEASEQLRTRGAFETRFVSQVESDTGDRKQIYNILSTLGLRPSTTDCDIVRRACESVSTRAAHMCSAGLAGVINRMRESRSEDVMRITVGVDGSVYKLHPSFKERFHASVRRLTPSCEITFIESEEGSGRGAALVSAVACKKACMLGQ
The series can be described thus: […] of recombinant human pancreatic glucokinase by G-6-P dehydrogenase assay.

A short description of series [2]: Apparent permeability from apical to basolateral side in MDCK cells expressing human MDR1. Format: ADME, cell-based, Canis lupus familiaris. To be noted: dog.
The nature of series [3]: Lipophilicity, log D of the compound. The series is classed as physicochemical. To be noted: octanol/water.
The target in series [4] is Voltage-gated inwardly rectifying potassium channel KCNH2 (Homo sapiens, UniProt Q12809).
Sequence of Voltage-gated inwardly rectifying potassium channel KCNH2 (Q12809 whole entry): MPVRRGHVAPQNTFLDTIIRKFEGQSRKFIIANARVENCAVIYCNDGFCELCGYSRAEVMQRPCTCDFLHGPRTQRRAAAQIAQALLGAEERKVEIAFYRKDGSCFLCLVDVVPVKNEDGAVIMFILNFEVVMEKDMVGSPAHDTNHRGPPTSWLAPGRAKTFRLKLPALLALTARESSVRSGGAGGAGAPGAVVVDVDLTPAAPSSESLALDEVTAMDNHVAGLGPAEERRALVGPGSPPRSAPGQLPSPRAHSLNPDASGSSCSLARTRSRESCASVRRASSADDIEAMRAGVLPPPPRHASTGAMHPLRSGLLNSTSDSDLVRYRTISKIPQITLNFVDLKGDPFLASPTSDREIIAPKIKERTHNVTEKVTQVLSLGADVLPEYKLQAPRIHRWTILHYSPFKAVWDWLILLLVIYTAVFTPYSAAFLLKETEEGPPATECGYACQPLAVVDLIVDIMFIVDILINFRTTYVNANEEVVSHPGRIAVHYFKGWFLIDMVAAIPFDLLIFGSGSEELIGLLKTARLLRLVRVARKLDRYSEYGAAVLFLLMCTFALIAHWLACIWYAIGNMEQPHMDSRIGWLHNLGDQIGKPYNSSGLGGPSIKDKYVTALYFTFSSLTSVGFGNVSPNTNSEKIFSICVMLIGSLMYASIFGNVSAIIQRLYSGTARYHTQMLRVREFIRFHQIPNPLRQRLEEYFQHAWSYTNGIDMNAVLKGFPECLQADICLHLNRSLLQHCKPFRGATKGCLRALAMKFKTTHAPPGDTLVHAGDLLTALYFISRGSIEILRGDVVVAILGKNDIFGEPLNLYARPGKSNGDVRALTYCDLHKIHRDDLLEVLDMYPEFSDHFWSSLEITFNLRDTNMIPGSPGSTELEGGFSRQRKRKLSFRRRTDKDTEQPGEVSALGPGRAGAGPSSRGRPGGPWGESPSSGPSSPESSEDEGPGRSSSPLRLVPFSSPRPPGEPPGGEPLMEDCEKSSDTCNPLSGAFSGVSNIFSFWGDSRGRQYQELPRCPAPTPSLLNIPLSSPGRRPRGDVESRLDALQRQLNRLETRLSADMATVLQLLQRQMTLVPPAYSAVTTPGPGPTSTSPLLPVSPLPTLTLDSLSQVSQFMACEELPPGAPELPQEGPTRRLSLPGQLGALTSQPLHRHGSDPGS
Another series concerns Salmonella typhimurium. As to the kind of experiment: Genotoxicity in Salmonella typhimurium by Ames test. Format: toxicity, organism-based. To be noted: salmonella enterica subsp. enterica serovar typhimurium.
The species entered for another series is Canis familiaris. As to the kind of experiment: Unbound clearance in dog. Format: ADME, organism-based, Canis lupus familiaris. To be noted: in vivo.
A short description of series [5]: Oral bioavailability in dog. The series is classed as ADME, organism-based, Canis lupus familiaris. To be noted: in vivo.
The test system of series [6] is Rattus norvegicus. The series can be described thus: Antidiabetic activity in high fat fed Zucker rat assessed as reduction of AUC of plasma glucose level at 1 mg/kg by oral glucose tolerance test. The series is classed as functional. Also noted: scale not given: the % may be the effect or the level left.
The nature of series [7]: Volume of distribution at steady state in dog. To be noted: in vivo, read-out: Vdss. Format: ADME, organism-based, Canis lupus familiaris.
Series [8] in a line: Clearance in dog. Format: ADME, organism-based, Canis lupus familiaris. To be noted: in vivo.
Series [9] can be described thus: Volume of distribution at steady state in rat. The series is classed as ADME, organism-based. To be noted: in vivo, read-out: Vdss.
Series [10] is described as follows: Oral bioavailability in rat. Format: ADME, organism-based. To be noted: in vivo.
Series [11] is filed under the species Rattus norvegicus. The series can be described thus: Unbound clearance in rat. The series is classed as ADME, organism-based. To be noted: in vivo.
The nature of series [12]: Clearance in rat. The series is classed as ADME, organism-based. To be noted: in vivo.
Series [13] concerns Rattus norvegicus. As to the kind of experiment: Antidiabetic activity in high fat fed Zucker rat assessed as reduction of AUC of plasma glucose level at 3 mg/kg by oral glucose tolerance test. Format: functional. More on the design: scale not given: the % may be the effect or the level left.

≈ marks a conversion by molar mass, not a printed value. Bounds are passed on as bounds.

What is called solubility (thermodynamic) is solubility found after equilibrating the solid with the medium. The EC50 is the concentration at which the effect is half-maximal. In general, Papp A→B refers to how fast a substance crosses the layer from the apical side. One may read the logD as lipophilicity at a set pH, counting ionised and neutral species. The IC50 is the concentration that inhibits the measured activity by half. Take `Cc1cnc(NC(=O)c2cc(Oc3ccc(C(=O)N4CCC4)cc3)cc(O[C@@H](C)CO)c2)cn1`: the solubility (thermodynamic) in [1] is 17 µM (≈ 7.86 µg/mL). At Hexokinase-4, the EC50 worked out at 0.061 µM. The Papp A→B in series [2] was determined as 41 nm/s. In addition, the logD in series [3] turned out to be 2.4. In [4], this compound had an IC50 of 38 µM.
For the compound `Nc1nccs1` [AMINOTHIAZOLE], the Activity entry in the series with Salmonella typhimurium is listed as “Non-toxic”.
With `CC(C)n1ccc(N)n1`, the Activity entry with Salmonella typhimurium is “Toxic”.
Turning to `CC(C)Oc1cc(Oc2ccc(C(=O)N3CCC3)cc2)cc(C(=O)Nc2ccn(C)n2)c1`, the thermodynamic solubility in series [1] came out at 125 µM (≈ 54.3 µg/mL). Moreover, on Hexokinase-4, the EC50 stood at 0.11 µM. The compound further gave a logD in series [3] of 3.3. In addition, half-maximal inhibition in series [4] (IC50) was put at 27 µM.
As for `Cn1ccc(NC(=O)c2cc(Oc3ccc(C(=O)N4CCC4)cc3)cc(OC(CF)CF)c2)n1`, the thermodynamic solubility in series [1] turned out to be 11 µM (≈ 5.18 µg/mL). On Hexokinase-4, the EC50 was found to be 0.047 µM. The apical-to-basolateral permeability (Papp A→B) in [2] is 70 nm/s. The same compound showed a logD in [3] of 2.6.
As to `Nc1cc[nH]n1`, the Activity entry in the series on Salmonella typhimurium is “Non-toxic”.
A word on the bioavailability: it is dose-corrected exposure relative to a reference, in per cent. A word on the clearance: it is the rate of elimination divided by the concentration. In the case of `COC[C@H](C)Oc1cc(Oc2cnc(C(=O)N3CCC3)cn2)cc(C(=O)Nc2cnc(C)cn2)c1` [AZD-1656], the solubility (thermodynamic) in series [1] was 280 µM (≈ 134 µg/mL). In addition, the figures for the CL free in the series listed under Canis familiaris and in the series filed under Rattus norvegicus [11] were 3 L/h/kg and 18.6 L/h/kg, respectively. Moreover, the EC50 on Hexokinase-4 amounted to 0.061 µM. Moreover, the bioavailability in series [5] and in series [10] was 100% each time. The apparent permeability from apical to basolateral (Papp A→B) in series [2] was found to be 350 nm/s. Moreover, in the series on Rattus norvegicus [6], the Activity amounted to 43%. In addition, the results for the Vd in series [7] and in series [9] were 1.5 L/kg and 0.5 L/kg, respectively. Also, in series [3], the log distribution coefficient (logD) is 2.4. In addition, the clearance in series [8] is 0.486 L/h/kg; in series [12] it was 0.96 L/h/kg. In addition, in series [4], the IC50 was above 100 µM.
With `COC[C@H](C)Oc1cc(Oc2ccc(C(=O)N3CCC3)nc2)cc(C(=O)Nc2cnc(C)cn2)c1`, the thermodynamic solubility in [1] worked out at 21 µM (≈ 10 µg/mL). The EC50 at Hexokinase-4 was determined as 0.036 µM. Moreover, the Papp A→B in [2] came to 180 nm/s. In series [3], this compound yielded a pH-dependent lipophilicity (logD) of 2.9. Further, in series [4], the IC50 turned out to be 40 µM.
As to `CCn1ccc(N)n1`, in the series with Salmonella typhimurium, the Activity result was “Toxic”.
With `Cc1nsc(NC(=O)c2cc(Oc3ccc(C(=O)N4CCC4)cc3)cc(O[C@@H](C)CO)c2)n1`, the thermodynamic solubility in [1] is 17 µM (≈ 7.97 µg/mL). In addition, at Hexokinase-4, the EC50 stood at 0.035 µM. For the same compound, in series [2], the Papp A→B amounted to 52 nm/s. In [3], this compound yielded a logD of 2.7. The IC50 in series [4] came to 11 µM.
In series [1], `Cn1ccc(NC(=O)c2cc(Oc3ccc(C(=O)N4CCC4)cc3)cc(O[C@H]3CCOC3)c2)n1` gave a thermodynamic solubility of 180 µM (≈ 83.3 µg/mL). Further, the EC50 on Hexokinase-4 was 0.07 µM. Moreover, the Papp A→B in series [2] amounted to 64 nm/s. This compound displayed a logD in series [3] of 2.2.
Take `C[C@@H](CO)Oc1cc(Oc2ccc(C(=O)N3CCC3)cc2)cc(C(=O)Nc2cc[nH]n2)c1`: the thermodynamic solubility in series [1] was determined as 670 µM (≈ 292 µg/mL). Further, the EC50 at Hexokinase-4 came out at 0.053 µM. Moreover, the Papp A→B in [2] is 8 nm/s. The compound also showed a log distribution coefficient (logD) in series [3] of 2. This compound also registered an IC50 in [4] above 100 µM.
`CC(C)n1ccc(NC(=O)c2cc(Oc3ccc(C(=O)N4CCC4)cc3)cc(O[C@@H](C)CO)c2)n1` came in with a solubility (thermodynamic) in series [1] of 44 µM (≈ 21.1 µg/mL). Moreover, the EC50 on Hexokinase-4 was determined as 0.073 µM. In series [3], the logD came to 2.8. The compound also showed an IC50 in [4] of 31 µM.
Turning to `Cc1nsc(N)n1`, the Activity result in the series on Salmonella typhimurium is listed as “Non-toxic”.
The compound `CCn1ccc(NC(=O)c2cc(Oc3ccc(C(=O)N4CCC4)cc3)cc(O[C@@H](C)CO)c2)n1` showed a thermodynamic solubility in series [1] of 280 µM (≈ 130 µg/mL). Besides, the EC50 at Hexokinase-4 stood at 0.031 µM. Further, in series [2], the apical-to-basolateral permeability (Papp A→B) was 16 nm/s. The logD in series [3] was found to be 2.4.
On to `COC[C@H](C)Oc1cc(Oc2ccc(C(=O)N3CCC3)cn2)cc(C(=O)Nc2cnc(C)cn2)c1`, for which the EC50 on Hexokinase-4 worked out at 0.37 µM.
Turning to `C[C@@H](CO)Oc1cc(Oc2ccc(C(=O)N3CCC3)cc2)cc(C(=O)Nc2nccs2)c1`, the thermodynamic solubility in series [1] amounted to 9 µM (≈ 4.08 µg/mL). Further, the EC50 on Hexokinase-4 came to 0.032 µM. In series [3], the logD stood at 3.1. In series [4], the IC50 was 9 µM.
For the compound `Cn1ccc(NC(=O)c2cc(Oc3ccc(C(=O)N4CCC4)cc3)cc(OC3CCOCC3)c2)n1`, the solubility (thermodynamic) in series [1] turned out to be 170 µM (≈ 81 µg/mL). In addition, at Hexokinase-4, the EC50 stood at 0.17 µM.
With `Cn1ccc(N)n1`, the Activity result in the series with Salmonella typhimurium is listed as “Toxic”.
In turn, `COC[C@H](C)Oc1cc(Oc2ccc(C(=O)N3CCC3)cc2)cc(C(=O)Nc2ccn(C)n2)c1` showed a solubility (thermodynamic) in series [1] of 490 µM (≈ 228 µg/mL). Also, the EC50 at Hexokinase-4 was 0.037 µM. In [2], the Papp A→B was found to be 120 nm/s. Further, the log distribution coefficient (logD) in [3] is 2.5.
Regarding `Cc1cnc(N)cn1`, the Activity result in the series with Salmonella typhimurium is reported as “Non-toxic”.
For the compound `C[C@@H](CO)Oc1cc(Oc2ccc(C(=O)N3CCC3)cc2)cc(C(=O)Nc2ccn(C)n2)c1`, the thermodynamic solubility in series [1] was found to be 350 µM (≈ 158 µg/mL). In addition, the CL free was 3.66 L/h/kg in the series listed under Canis familiaris and 28.8 L/h/kg in the series filed under Rattus norvegicus [11]. Also, the Activity in the series with Rattus norvegicus [13] is given as 24%. Besides, in series [2], the Papp A→B turned out to be 12 nm/s.
In series [1], `COC[C@H](C)Oc1cc(Oc2ccc(C(=O)N3CCC3)cc2)cc(C(=O)Nc2cnc(C)cn2)c1` came in with a thermodynamic solubility of 30 µM (≈ 14.3 µg/mL). Further, at Hexokinase-4, the EC50 is 0.073 µM. Further, the Papp A→B in series [2] was 290 nm/s. In addition, the logD in series [3] was found to be 2.9.
As for `COC[C@H](C)Oc1cc(Oc2ncc(C(=O)N3CCC3)cc2Cl)cc(C(=O)Nc2cnc(C)cn2)c1`, in [1], the solubility (thermodynamic) was 8 µM (≈ 4.1 µg/mL). The EC50 at Hexokinase-4 was 0.06 µM. The compound further displayed a logD in series [3] of 2.8.
